Patent publication US20070202047A1, “Polyamine-substituted ligands for use as contrast agents” (priority 2006, published 2007)

Assays:
[1] = target: T1, human serum albumin (Homo sapiens, UniProt P02768); experiment: Serum albumin binding (ultrafiltration, ICP-MS); format: in vitro ADME; settings: 20 μM complex, 40 g/L HSA, 37° C.; for binding of complex to human serum albumin: 30 or 90 min
T1 construct: purchased Behring, Bern, Switzerland
Experimental: Serum albumin binding. Solutions containing 20 μM Gd-3.1., Gd-5.1. or Gd-6.1. and 40 g/L human serum albumin (Behring, Bern, Switzerland) were incubated at 37° C. for 30 or 90 min. The solutions were subjected to ultrafiltration (filter cutoff 20 kD; Sartorius, Göttingen, Germany), and the amount of unbound complex was determined in the ultrafiltrate with ICP-MS (n=2).
HSA Binding: 20 μM solutions of the complexes were incubated at 37° C. for 30 and 90 minutes in a solution of 40 g HSA/L (Behring, Bern; Switzerland). The amount of unbound complex was determined in ultrafiltrates with ICP-MS.

[2] = Relaxivity measurements in PBS solution; format: physicochemical; settings: 37° C.; for longitudinal relaxation rate R1(Gd): 250 MHz (5.4 T); for molar chemical shift Δδ(Gd): H2O signal relative to external HDO; for molar chemical shift Δδ(Gd) / molar relaxivity r1: 250 MHz; for molar relaxivity r1: PBS
Experimental: Relaxivity Measurements. A phosphate-buffered saline (PBS, pH 7.4) reference solution and solutions of the Gd complexes Gd-3.1. (60 mM), Gd-5.1. (60 mM), and Gd-6.1. […] Each capillary was then inserted into a standard 5-mm NMR tube containing D2O (99.96% D) for ^1H relaxation rate measurements at 250 MHz (5.4 T, Bruker AC-250 spectrometer) and 37° C. using the inversion-recovery method. The relaxation rates R1 were determined by a three-parameter nonlinear least-squares fit of the intensity data to the equation M(τ)=M0[1−2q exp(−R1τ)] with 8-11 τ values. The transverse relaxation rate R2 was estimated from the H2O signal linewidth Δν at half height (R2=πΔν). The standard error of estimate for R1 was <0.7% for all samples. The relaxivities were estimated as r1 [s^−1 mM^−1]=[R1(Gd)−R1(0)]/[Gd], where [Gd] is the concentration of Gd complex in the sample with relaxation rate R1(Gd), and R1(0) is the rate for the reference sample of PBS. Analogous calculations were made for r2 from R2.
For the ^1H relaxation rate measurements at 250 MHz (5.4 T, Bruker AC-250 spectrometer) and 37° C., sample temperature was regulated to better than ±0.1° C. using the variable temperature unit of the spectrometer. The solutions studied were placed in capillaries to reduce the sample volume and the resulting intensity of the H2O signal, thus avoiding the influences of radiation damping on the relaxation behavior. The D2O solution added to the 5-mm NMR tube provided a field/frequency lock signal and residual HDO as a reference signal. An inversion-recovery pulse sequence (RD-180°-τ-90°-acquisition) was executed with a composite 180° pulse of constant phase, four-step phase cycling of the 90° pulse (7.3 μs) for four transients, and 8-11 τ values. For each sample the list of τ values was chosen after determining the approximate τnull for the “null” point of the recovery curve by trial measurements, and the delay RD was set to at least 10τnull. The resulting spectra were phase and baseline corrected manually, and the H2O signal intensity was determined by the peak picking algorithm of the NMR software.
The relaxation rates R1 were determined by a three-parameter nonlinear least-squares fit of the intensity data to the equation M(τ)=M0[1−2q exp(−R1τ)], where q was an additional fitting parameter used to account for the quality of spin inversion. The theoretical value of q is 1.0, and the fitted values were in the range 0.92-0.95. The transverse relaxation rate R2 was estimated from the H2O signal linewidth Δν at half height (R2=πΔν), and the chemical shift Δδ(Gd) of the H2O signal from the capillary relative to the HDO signal from the external D2O was determined as an additional measure of the paramagnetism of the Gd complex. The standard error of estimate for R1was <0.7% for all samples. The relaxivities were estimated as r1 […]=[R1(Gd)−R1(0)]/[Gd], where [Gd] is the concentration of Gd complex in the sample with relaxation rate R1(Gd), and R1(0) is the rate for the reference sample of PBS. Analogous calculations were made for r2 from R2 and for Δδ(Gd).

T1 sequence (P02768 25-609): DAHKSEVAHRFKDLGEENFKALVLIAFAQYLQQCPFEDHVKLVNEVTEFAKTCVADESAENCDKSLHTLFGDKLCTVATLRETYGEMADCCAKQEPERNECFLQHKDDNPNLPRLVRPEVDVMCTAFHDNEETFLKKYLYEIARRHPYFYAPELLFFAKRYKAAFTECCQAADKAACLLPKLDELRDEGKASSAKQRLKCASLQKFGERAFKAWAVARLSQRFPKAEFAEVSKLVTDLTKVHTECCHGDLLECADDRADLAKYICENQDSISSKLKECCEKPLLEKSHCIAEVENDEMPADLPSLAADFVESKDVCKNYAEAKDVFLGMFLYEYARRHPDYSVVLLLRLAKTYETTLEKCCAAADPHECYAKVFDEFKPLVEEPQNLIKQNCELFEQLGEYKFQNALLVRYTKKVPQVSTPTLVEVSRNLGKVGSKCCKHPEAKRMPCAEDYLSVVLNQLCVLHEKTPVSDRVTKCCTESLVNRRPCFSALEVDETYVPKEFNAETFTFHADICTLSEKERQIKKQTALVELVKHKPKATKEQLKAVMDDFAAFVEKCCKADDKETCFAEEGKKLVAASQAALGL

NCCCCN(CCCN)C(=O)CN(CCN(CCN(CC(=O)[O-])CC(=O)N(CCCN)CCCCN)CC(=O)[O-])CC(=O)[O-].[Gd+3] [Gd-6.1]
binding of complex to human serum albumin [1]: no significant binding of complex to protein | longitudinal relaxation rate R1(Gd) ([2]; 30 mM in PBS): 194.5 ± 0.9 s⁻¹ | molar chemical shift Δδ(Gd) [2]: 0.161 ppm mM-^−1 | molar relaxivity r1 [2]: 6.5 s⁻¹ mM⁻¹

NCCN(CCN)C(=O)CN(CCN(CCN(CC(=O)[O-])CC(=O)N(CCN)CCN)CC(=O)[O-])CC(=O)[O-].[Gd+3] [Gd-5.1]
binding of complex to human serum albumin [1]: no significant binding of complex to protein | longitudinal relaxation rate R1(Gd) ([2]; 60 mM in PBS): 137.9 ± 0.2 s⁻¹ | molar chemical shift Δδ(Gd) [2]: 0.045 ppm mM-^−1 | molar relaxivity r1 [2]: 2.3 s⁻¹ mM⁻¹

CCN(CC)CCNC(=O)CN(CCN(CCN(CC(=O)[O-])CC(=O)N(CCN)CCN)CC(=O)[O-])CC(=O)[O-].[Gd+3] [Gd-3.1]
binding of complex to human serum albumin [1]: no significant binding of complex to protein | complex found to be free (unbound) ([1]; ultrafiltrate): 93±6% | longitudinal relaxation rate R1(Gd) ([2]; 60 mM in PBS): 469 ± 2 s⁻¹ | molar chemical shift Δδ(Gd) [2]: 0.125 ppm mM-^−1 | molar relaxivity r1 [2]: 7.8 s⁻¹ mM⁻¹
